Data from patent publication US20250230153A1, “2,3-DIHYDROBENZO[B][1,4]DIOXIN-6-YL CONTAINING COMPOUNDS USEFUL AS IMMUNOMODULATORS” (BRISTOL-MYERS SQUIBB COMPANY, priority 2021, published 2025).
Counter-ions that a name gives are not always drawn.

Target: PD-1/PD-L1 (Homo sapiens (Human), UniProt Q9NZQ7)
Assay: PD-1/PD-L1 Homogenous Time-Resolved Fluorescence (HTRF) binding assay
Details: PD-1-Ig (20 nM final)/PD-L1-His (10 nM final) binding assay
Summary of the method: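 Compounds pre-incubated 15 min with human PD-L1(18-239)-His (10 nM final), then 15 min with PD-1(25-167)-Ig (20 nM final), in dPBS with 0.1% BSA and 0.05% Tween-20. Detection with Eu-cryptate anti-Ig (1 nM) and APC anti-His (20 nM) after 30 min equilibration; 665/620 nm ratio read.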

Sequence of PD-1/PD-L1 (Q9NZQ7 18-239): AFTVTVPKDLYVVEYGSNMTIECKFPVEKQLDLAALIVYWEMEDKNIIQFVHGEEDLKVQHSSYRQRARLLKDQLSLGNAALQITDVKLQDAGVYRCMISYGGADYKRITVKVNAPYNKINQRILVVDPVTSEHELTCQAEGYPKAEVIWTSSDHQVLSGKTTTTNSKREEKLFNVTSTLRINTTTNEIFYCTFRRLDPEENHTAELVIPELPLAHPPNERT

| IC50 | Compound |
| --- | --- |
| 4.4 nM | Cc1c(COc2cc(OCC3CCOCC3)c(CN[C@](C)(CO)C(=O)O)cc2Cl)cccc1-c1ccc2c(c1)OCCO2 [Example 1045, (R)-2-((5-Chloro-4-((3-(2,3-dihydrobenzo[b][1,4]dioxin-6-yl)-2-methylbenzyl)oxy)-2-((tetrahydro-2H-pyran-4-yl)methoxy)benzyl)amino)-3-hydroxy-2-methylpropanoic acid] |
| 6.5 nM | Cc1c(COc2cc(OCC3CCCN(C)C3)c(CN[C@@](C)(CO)C(=O)O)cc2Cl)cccc1-c1ccc2c(c1)OCCO2 (stereo partly drawn) [Example 2003, (2S)-2-((5-chloro-4-((3-(2,3-dihydrobenzo[b][1,4]dioxin-6-yl)-2-methylbenzyl)oxy)-2-((1-methylpiperidin-3-yl)methoxy)benzyl)amino)-3-hydroxy-2-methylpropanoic acid] |
| 1.3 nM | COC(=O)C1(O)CCN(CCOc2cc(OCc3cccc(-c4ccc5c(c4)OCCO5)c3C)c(Cl)cc2CN[C@](C)(CO)C(=O)O)CC1 [Example 1052, (R)-2-((5-Chloro-4-((3-(2,3-dihydrobenzo[b][1,4]dioxin-6-yl)-2-methylbenzyl)oxy)-2-(2-(4-hydroxy-4-(methoxycarbonyl)piperidin-1-yl)ethoxy)benzyl)amino)-3-hydroxy-2-methylpropanoic acid] |
| 17.3 nM | Cc1c(COc2cc(OCc3ccnc(NC(=O)N4CCOCC4)c3)c(CN[C@@](C)(CO)C(=O)O)cc2Cl)cccc1-c1ccc2c(c1)OCCO2 [Example 1004, (S)-2-((5-Chloro-4-((3-(2,3-dihydrobenzo[b][1,4]dioxin-6-yl)-2-methylbenzyl)oxy)-2-((2-(morpholine-4-carboxamido)pyridin-4-yl)methoxy)benzyl)amino)-3-hydroxy-2-methylpropanoic acid] |
| 1.1 nM | COC(=O)CCSc1cncc(COc2cc(OCc3cccc(-c4ccc5c(c4)OCCO5)c3C)c(Cl)cc2CN[C@@](C)(CO)C(=O)O)c1 [Example 1006, (S)-2-((5-Chloro-4-((3-(2,3-dihydrobenzo[b][1,4]dioxin-6-yl)-2-methylbenzyl)oxy)-2-((5-((3-methoxy-3-oxopropyl)thio)pyridin-3-yl)methoxy)benzyl)amino)-3-hydroxy-2-methylpropanoic acid] |
| 59.8 nM | Cc1c(COc2cc(OCC3CCC3)c(CN3CCCC[C@H]3C(=O)O)cc2Cl)cccc1-c1ccc2c(c1)OCCO2 [Example 1050, (S)-1-(5-Chloro-2-(cyclobutylmethoxy)-4-((3-(2,3-dihydrobenzo[b][1,4]dioxin-6-yl)-2-methylbenzyl)oxy)benzyl)piperidine-2-carboxylic acid] |
| 3.9 nM | Cc1c(COc2cc(OC[C@@H](C)CO)c(CN3CCCC[C@H]3C(=O)O)cc2Cl)cccc1-c1ccc2c(c1)OCCO2 [Example 1034, (S)-1-(5-chloro-4-((3-(2,3-dihydrobenzo[b][1,4]dioxin-6-yl)-2-methylbenzyl)oxy)-2-((S)-3-hydroxy-2-methylpropoxy)benzyl)piperidine-2-carboxylic acid] |
| 72 nM | Cc1c(COc2cc(OCc3cccc(-c4nc(CC(=O)O)cs4)c3)c(CN[C@@](C)(CO)C(=O)O)cc2Cl)cccc1-c1ccc2c(c1)OCCO2 [Example 1013, (S)-2-((2-((3-(4-(Carboxymethyl)thiazol-2-yl)benzyl)oxy)-5-chloro-4-((3-(2,3-dihydrobenzo[b][1,4]dioxin-6-yl)-2-methylbenzyl)oxy)benzyl)amino)-3-hydroxy-2-methylpropanoic acid] |
| 7 nM | Cc1c(COc2cc(OCC3CCOCC3)c(CN3CCCC[C@H]3C(=O)O)cc2Cl)cccc1-c1ccc2c(c1)OCCO2 [Example 1046, (S)-1-(5-Chloro-4-((3-(2,3-dihydrobenzo[b][1,4]dioxin-6-yl)-2-methylbenzyl)oxy)-2-((tetrahydro-2H-pyran-4-yl)methoxy)benzyl)piperidine-2-carboxylic acid] |
| 68.4 nM | Cc1c(COc2cc(OCc3cccc(-c4nc(CC(=O)O)co4)c3)c(CN[C@@](C)(CO)C(=O)O)cc2Cl)cccc1-c1ccc2c(c1)OCCO2 [Example 1015, (S)-2-((2-((3-(4-(Carboxymethyl)oxazol-2-yl)benzyl)oxy)-5-chloro-4-((3-(2,3-dihydrobenzo[b][1,4]dioxin-6-yl)-2-methylbenzyl)oxy)benzyl)amino)-3-hydroxy-2-methylpropanoic acid] |
| 0.6 nM | Cc1c(COc2cc(OCCN3CCC(O)(C(=O)O)CC3)c(CNC(C)(CO)CO)cc2Cl)cccc1-c1ccc2c(c1)OCCO2 [Example 1056, 1-(2-(4-Chloro-5-((3-(2,3-dihydrobenzo[b][1,4]dioxin-6-yl)-2-methylbenzyl)oxy)-2-(((1,3-dihydroxy-2-methylpropan-2-yl)amino)methyl)phenoxy)ethyl)-4-hydroxypiperidine-4-carboxylic acid] |
| 11.1 nM | Cc1c(COc2cc(OCC3CCC3)c(CN[C@](C)(CO)C(=O)O)cc2Cl)cccc1-c1ccc2c(c1)OCCO2 [Example 1048, (R)-2-((5-chloro-2-(cyclobutylmethoxy)-4-((3-(2,3-dihydrobenzo[b][1,4]dioxin-6-yl)-2-methylbenzyl)oxy)benzyl)amino)-3-hydroxy-2-methylpropanoic acid] |
| 20.2 nM | Cc1c(COc2cc(OCc3cccc(CN)c3)c(CN3CCCC[C@H]3C(=O)O)cc2Cl)cccc1-c1ccc2c(c1)OCCO2 [Example 1017, (S)-1-(2-((3-(Aminomethyl)benzyl)oxy)-5-chloro-4-((3-(2,3-dihydrobenzo[b][1,4]dioxin-6-yl)-2-methylbenzyl)oxy)benzyl)piperidine-2-carboxylic acid, bis-trifluoroacetic acid salt] |
| 9.2 nM | Cc1c(COc2cc(OCCN3CCS(=O)(=O)CC3)c(CN3CCCC[C@H]3C(=O)O)cc2Cl)cccc1-c1ccc2c(c1)OCCO2 [Example 1060, (S)-1-(5-chloro-4-((3-(2,3-dihydrobenzo[b][1,4]dioxin-6-yl)-2-methylbenzyl)oxy)-2-(2-(1,1-dioxidothiomorpholino)ethoxy)benzyl)piperidine-2-carboxylic acid] |
| 5.2 nM | Cc1c(COc2cc(OCc3cncc(C(=O)NCCC(=O)O)c3)c(CN3CC[C@H](O)C3)cc2Cl)cccc1-c1ccc2c(c1)OCCO2 [Example 2008, (S)-3-(5-((4-chloro-5-((3-(2,3-dihydrobenzo[b][1,4]dioxin-6-yl)-2-methylbenzyl)oxy)-2-((3-hydroxypyrrolidin-1-yl)methyl)phenoxy)methyl)nicotinamido)propanoic acid] |
| 7.9 nM | CCn1cc(COc2cc(OCc3cccc(-c4ccc5c(c4)OCCO5)c3C)c(Cl)cc2CN[C@H](CO)C(=O)O)cn1 [Example 1005, (R)-2-((5-Chloro-4-((3-(2,3-dihydrobenzo[b][1,4]dioxin-6-yl)-2-methylbenzyl)oxy)-2-((1-ethyl-1H-pyrazol-4-yl)methoxy)benzyl)amino)-3-hydroxypropanoic acid] |
| 4.1 nM | Cc1c(COc2cc(OCc3cncc(S(N)(=O)=O)c3)c(CN[C@@](C)(CO)C(=O)O)cc2Cl)cccc1-c1ccc2c(c1)OCCO2 [Example 1019, (S)-2-((5-Chloro-4-((3-(2,3-dihydrobenzo[b][1,4]dioxin-6-yl)-2-methylbenzyl)oxy)-2-((5-sulfamoylpyridin-3-yl)methoxy)benzyl)amino)-3-hydroxy-2-methylpropanoic acid] |

| Compound | IC50 |
| --- | --- |
| Cc1c(COc2cc(OCCCCN3CC[C@@H](O)C3)c(CN3CCCC[C@H]3C(=O)O)cc2Cl)cccc1-c1ccc2c(c1)OCCO2 [Example 1025, (S)-1-(5-Chloro-4-((3-(2,3-dihydrobenzo[b][1,4]dioxin-6-yl)-2-methylbenzyl)oxy)-2-(4-((R)-3-hydroxypyrrolidin-1-yl)butoxy)benzyl)piperidine-2-carboxylic acid] | 15.6 nM |
| Cc1c(COc2cc(OCc3cnn(CC(=O)OC(C)(C)C)c3)c(CN[C@@](C)(CO)C(=O)O)cc2Cl)cccc1-c1ccc2c(c1)OCCO2 [Example 1009, (S)-2-((2-((1-(2-(tert-Butoxy)-2-oxoethyl)-1H-pyrazol-4-yl)methoxy)-5-chloro-4-((3-(2,3-dihydrobenzo[b][1,4]dioxin-6-yl)-2-methylbenzyl)oxy)benzyl)amino)-3-hydroxy-2-methylpropanoic acid] | 43.7 nM |
